We go through 40 compounds from US11999739B2, “Antimicrobials methods of making and using the same” (BIOVERSYS AG, priority 2016, dated 2024).

For assay [1], the system named is Escherichia coli strain ATCC25922. The experiment in a line: Standard microdilution MIC assay, E. coli. It counts as cell-based. As for the experimental part: (§1) The in vitro activity of the compounds of the present disclosure can be determined. Antimicrobial testing is typically performed to determine the minimum inhibitory concentration (MIC). Minimum inhibitory concentrations (MICs) are determined by the microdilution method in a final volume of 100 μl according to protocols outlined by The Clinical and Laboratory Standards Institute (CLSI). Performance standards for reference strains are assessed within the same experimental design to maintain quality control. See, for example, Clinical Laboratory Standards Institute: Methods for dilution antimicrobial susceptibility tests for bacteria that grow aerobically M7-A8. Approved Standard-Eighth Edition. Wayne, PA: CLSI; December 2008; and Clinical Laboratory Standards Institute: Performance Standards for Antimicrobial Susceptibility Testing M100-S20; Approved Standard-Twentieth Edition. Wayne, PA: CLSI; June 2010.
(§2) The compounds of the present disclosure were tested for antimicrobial activity. The Compounds 1-293 were run against Escherichia coli (E co/i) strain ATCC25922 and against Staphylococcus aureus (S. aureus) 11540 strain using a standard microdilution assay to determine minimum inhibitory concentrations (MICs). […] It will be recognized by one skilled in the art that the compounds can be assessed against other bacterial organisms and that the presentation of data for activity against Escherichia coli and Staphylococcus aureus are illustrative and in no way is intended to limit the scope of the present disclosure. The compounds of the present disclosure can be assayed against a range of other microorganisms depending upon the performance activity desired to be gathered. Furthermore, the “+” and “−” representation and the selection of a cutoff value of 16 micrograms/mL is also illustrative and in no way is intended to limit the scope of the present disclosure.
(In general: Broth dilution looks for growth in wells or tubes with falling amounts of substance.)

The test system of assay [2] is Staphylococcus aureus (S. aureus) 11540 strain. Description: Standard microdilution MIC assay, S. aureus. The class given is cell-based. As for the experimental part: as §1, §2

In general, MIC refers to the lowest concentration found to suppress growth. A higher MIC goes with a less susceptible organism.

Take `C[C@H](N)CCCc1cc(Cl)c(F)c(-c2cc3cn(-c4ccc([C@H]5CNC[C@@H](CCNC(=N)CF)N5)cc4)c(=O)nc3[nH]2)c1` [Compound 46]: the minimal inhibitory concentration (MIC) in assay [1] and in assay [2] was no more than 16 µg/mL throughout.

`CC(=N)NCC[C@@H]1COC[C@@H](c2ccc(-n3cc4cc(-c5cc(CCC[C@H](C)N)cc(Cl)c5F)[nH]c4nc3=O)cc2)N1` [Compound 47]: the MIC in assay [1] and in assay [2] was no more than 16 µg/mL each time.

In the case of `CC(=N)NCC[C@H]1CNC[C@@H](c2ccc(-n3cc4cc(-c5cc(CCC[C@H](C)N)cc(Cl)c5F)[nH]c4nc3=O)cc2)N1` [Compound 48], the MIC in assay [1] and in assay [2] was no more than 16 µg/mL throughout.

For `C[C@H](N)CCCc1cc(Cl)c(F)c(-c2cc3cn(-c4ccc([C@@H]5CNC[C@H](CCNC(=N)CF)N5)cc4)c(=O)nc3[nH]2)c1` [Compound 49], the MIC in assay [1] and in assay [2] was no more than 16 µg/mL each time.

As to `C[C@H](N)CCCc1cc(Cl)c(F)c(-c2cc3cn(-c4ccc([C@@H]5CNC[C@@H](CCNC(=N)CF)N5)cc4)c(=O)nc3[nH]2)c1` [Compound 51], the MIC in assay [1] and in assay [2] was no more than 16 µg/mL throughout.

For the compound `C=C[C@@H](CCNC(=N)CCOCC)NCc1ccc(-n2cc3cc(-c4cc(CCC[C@H](C)N)cc(Cl)c4F)[nH]c3nc2=O)cc1` [Compound 52], the MIC in assay [1] and in assay [2] was no more than 16 µg/mL in each case.

For the compound `C=C[C@@H](CCNC(=N)COC)NCc1ccc(-n2cc3cc(-c4cc(CCC[C@H](C)N)cc(Cl)c4F)[nH]c3nc2=O)cc1` [Compound 53], the MIC in assay [1] and in assay [2] was no more than 16 µg/mL in each case.

In the case of `CC(=N)NCC[C@@H]1COC[C@@H](c2ccc(-n3cc4cc(-c5cc(CCC[C@@H](N)CO)cc(Cl)c5F)[nH]c4nc3=O)cc2)N1` [Compound 54], the MIC in assay [1] and in assay [2] was no more than 16 µg/mL throughout.

With `N=C(CF)NCC[C@@H]1COC[C@@H](c2ccc(-n3cc4cc(-c5cc(CCC[C@@H](N)CO)cc(Cl)c5F)[nH]c4nc3=O)cc2)N1` [Compound 55], the MIC in assay [1] and in assay [2] was no more than 16 µg/mL in each case.

As for `C=C[C@@H](N)CCCc1cc(Cl)c(F)c(-c2cc3cn(-c4ccc([C@@H]5COC[C@@H](CCNC(C)=N)N5)cc4)c(=O)nc3[nH]2)c1` [Compound 56], the MIC in assay [1] and in assay [2] was no more than 16 µg/mL throughout.

As for `C=C[C@@H](N)CCCc1cc(Cl)c(F)c(-c2cc3cn(-c4ccc([C@@H]5COC[C@@H](CCNC(=N)CF)N5)cc4)c(=O)nc3[nH]2)c1` [Compound 57], the MIC in assay [1] and in assay [2] was no more than 16 µg/mL each time.

In the case of `C=C[C@@H](CCNC(=N)CC(F)(F)F)NCc1ccc(-n2cc3cc(-c4cc(CCC[C@H](C)N)cc(Cl)c4F)[nH]c3nc2=O)cc1` [Compound 58], the MIC in assay [1] and in assay [2] was no more than 16 µg/mL in each case.

`C=C[C@@H](CCNC(=N)CSC)NCc1ccc(-n2cc3cc(-c4cc(CCC[C@H](C)N)cc(Cl)c4F)[nH]c3nc2=O)cc1` [Compound 59]: the MIC in assay [1] and in assay [2] was no more than 16 µg/mL throughout.

For the compound `C=C[C@@H](CCNC(C)=N)NC(=O)c1ccc(-n2cc3cc(-c4cc(CCC[C@H](C)N)cc(Cl)c4F)[nH]c3nc2=O)cc1` [Compound 60], the MIC in assay [1] and in assay [2] was no more than 16 µg/mL each time.

For `C[C@H](N)CCCc1cc(Cl)c(F)c(-c2cc3cn(-c4ccc(CN[C@@H](CO)CCNC(=N)CF)cc4)c(=O)nc3[nH]2)c1` [Compound 61], the MIC in assay [1] and in assay [2] was no more than 16 µg/mL throughout.

With `CC(=N)NCC[C@@H]1CCC[C@@H](c2ccc(-n3cc4cc(-c5cc(CCC[C@@H](N)C(F)(F)F)cc(Cl)c5F)[nH]c4nc3=O)cc2)N1` [Compound 63], the MIC in assay [1] and in assay [2] was no more than 16 µg/mL throughout.

In the case of `N=C(CF)NCC[C@@H]1CCC[C@@H](c2ccc(-n3cc4cc(-c5cc(CCC[C@@H](N)C(F)(F)F)cc(Cl)c5F)[nH]c4nc3=O)cc2)N1` [Compound 64], the MIC in assay [1] and in assay [2] was no more than 16 µg/mL throughout.

Regarding `CC(=N)NCCCNCc1ccc(-n2cc3cc(-c4cc(CCCC(C)(C)N)cc(Cl)c4F)[nH]c3nc2=O)cc1F` [Compound 65], the MIC in assay [1] and in assay [2] was no more than 16 µg/mL throughout.

As for `CC(=N)NCC[C@@H]1COC[C@@H](c2ccc(-n3cc4cc(-c5cc(CCC[C@@H](N)C(F)(F)F)cc(Cl)c5F)[nH]c4nc3=O)cc2)N1` [Compound 66], the MIC in assay [1] and in assay [2] was greater than 16 µg/mL in each case.

As to `N=C(CF)NCC[C@@H]1COC[C@@H](c2ccc(-n3cc4cc(-c5cc(CCC[C@@H](N)C(F)(F)F)cc(Cl)c5F)[nH]c4nc3=O)cc2)N1` [Compound 67], the MIC in assay [1] and in assay [2] was greater than 16 µg/mL throughout.

Take `CC(=N)NCC[C@@H]1COC[C@@H](c2ccc(-n3cc4cc(-c5cc(CCCC(C)(C)N)cc(Cl)c5F)[nH]c4nc3=O)cc2)N1` [Compound 68]: the MIC in assay [1] and in assay [2] was no more than 16 µg/mL in each case.

For `CC(C)(N)CCCc1cc(Cl)c(F)c(-c2cc3cn(-c4ccc([C@@H]5COC[C@@H](CCNC(=N)CF)N5)cc4)c(=O)nc3[nH]2)c1` [Compound 69], the MIC in assay [1] and in assay [2] was no more than 16 µg/mL each time.

In the case of `C=C[C@@H](N)CCCc1cc(Cl)c(F)c(-c2cc3cn(-c4ccc(CNCCCNC(C)=N)c(F)c4)c(=O)nc3[nH]2)c1` [Compound 70], the MIC in assay [1] and in assay [2] was no more than 16 µg/mL throughout.

In the case of `CC(=N)NCC[C@@H]1COC[C@@H](c2ccc(-n3cc4cc(-c5cc(CCC(C)(C)CN)cc(Cl)c5F)[nH]c4nc3=O)cc2)N1` [Compound 71], the MIC in assay [1] and in assay [2] was no more than 16 µg/mL in each case.

Take `CC(C)(CN)CCc1cc(Cl)c(F)c(-c2cc3cn(-c4ccc([C@@H]5COC[C@@H](CCNC(=N)CF)N5)cc4)c(=O)nc3[nH]2)c1` [Compound 72]: the MIC in assay [1] and in assay [2] was no more than 16 µg/mL each time.

With `CC(=N)NCCCNCc1ccc(-n2cc3cc(-c4cc(CCC(C)(C)CN)cc(Cl)c4F)[nH]c3nc2=O)cc1F` [Compound 73], the MIC in assay [1] and in assay [2] was no more than 16 µg/mL in each case.

Take `CC(C)(CN)CCc1cc(Cl)c(F)c(-c2cc3cn(-c4ccc(CNCCCNC(=N)CF)c(F)c4)c(=O)nc3[nH]2)c1` [Compound 74]: the MIC in assay [1] and in assay [2] was no more than 16 µg/mL each time.

In the case of `C[C@H](N)CCCc1cc(Cl)c(F)c(-c2cc3cn(-c4ccc([C@@H]5COC[C@@H](CCNC(=N)CF)N5)cc4)c(=O)nc3[nH]2)c1` [Compound 75], the MIC in assay [1] and in assay [2] was no more than 16 µg/mL each time.

With `CC(=N)NCCCNCc1ccc(-n2cc3cc(-c4cc(CCC[C@H](C)N)cc(Cl)c4F)[nH]c3nc2=O)cc1F` [Compound 76], the MIC in assay [1] and in assay [2] was no more than 16 µg/mL each time.

Regarding `C[C@H](N)CCCc1cc(Cl)c(F)c(-c2cc3cn(-c4ccc(CNCCCNC(=N)CF)c(F)c4)c(=O)nc3[nH]2)c1` [Compound 77], the MIC in assay [1] and in assay [2] was no more than 16 µg/mL throughout.

Turning to `CC(=N)NCC[C@@H]1CCC[C@@H](c2ccc(-n3cc4cc(-c5cc(CCC[C@@H](N)C6CC6)cc(Cl)c5F)[nH]c4nc3=O)cc2)N1` [Compound 78], the MIC in assay [1] and in assay [2] was no more than 16 µg/mL in each case.

`CC(=N)NCC[C@H](CO)NCc1ccc(-n2cc3cc(-c4cc(CCC[C@@H](N)C5CC5)cc(Cl)c4F)[nH]c3nc2=O)cc1` [Compound 79]: the MIC in assay [1] and in assay [2] was no more than 16 µg/mL throughout.

For the compound `C=C[C@H](N)CCCc1cc(Cl)c(F)c(-c2cc3cn(-c4ccc([C@@H]5COC[C@@H](CCNC(C)=N)N5)cc4)c(=O)nc3[nH]2)c1` [Compound 80], the MIC in assay [1] and in assay [2] was no more than 16 µg/mL in each case.

Consider `C=C[C@H](N)CCCc1cc(Cl)c(F)c(-c2cc3cn(-c4ccc([C@@H]5COC[C@@H](CCNC(=N)CF)N5)cc4)c(=O)nc3[nH]2)c1` [Compound 81], for which the MIC in assay [1] and in assay [2] was no more than 16 µg/mL throughout.

In the case of `C=C[C@H](N)CCCc1cc(Cl)c(F)c(-c2cc3cn(-c4ccc([C@@H]5CCC[C@@H](CCNC(C)=N)N5)cc4)c(=O)nc3[nH]2)c1` [Compound 82], the MIC in assay [1] and in assay [2] was no more than 16 µg/mL throughout.

In the case of `C=C[C@H](N)CCCc1cc(Cl)c(F)c(-c2cc3cn(-c4ccc(CN[C@@H](CO)CCNC(C)=N)cc4)c(=O)nc3[nH]2)c1` [Compound 83], the MIC in assay [1] and in assay [2] was no more than 16 µg/mL in each case.

Consider `N=C(CF)NCC[C@H](CO)NCc1ccc(-n2cc3cc(-c4cc(CCC[C@@H](N)CO)cc(Cl)c4F)[nH]c3nc2=O)cc1` [Compound 84], for which the minimum inhibitory concentration (MIC) in assay [1] and in assay [2] was no more than 16 µg/mL in each case.

Take `N=C(CF)NCC[C@H](CO)NCc1ccc(-n2cc3cc(-c4cc(CCC[C@@H](N)C5CC5)cc(Cl)c4F)[nH]c3nc2=O)cc1` [Compound 85]: the MIC in assay [1] and in assay [2] was no more than 16 µg/mL throughout.

`N=C(CF)NCC[C@@H]1CCC[C@@H](c2ccc(-n3cc4cc(-c5cc(CCC[C@@H](N)C6CC6)cc(Cl)c5F)[nH]c4nc3=O)cc2)N1` [Compound 86]: the MIC in assay [1] and in assay [2] was no more than 16 µg/mL each time.

For the compound `C=C[C@@H](CCNC(C)=N)NCc1ccc(-n2cc3cc(-c4cc(CCC[C@@H](N)C5CC5)cc(Cl)c4F)[nH]c3nc2=O)cc1` [Compound 87], the MIC in assay [1] and in assay [2] was no more than 16 µg/mL each time.
